Data from the NIST ThermoML archive (doi:10.1007/s10765-005-5572-8).

Key:
[1] = 298.15 K; 101 kPa; Liquid
[2] = refractive index (Na D-line) (dimensionless); conditions: 298.15 K; 101.33 kPa; Liquid; Standard Abbe refractometry
[3] = xn = mol fraction of the nth substance listed; conditions: 298.15 K, 101 kPa, Liquid
[4] = refractive index (Na D-line) (dimensionless); xn = mol fraction of the nth substance listed; conditions: 298.15 K, 101 kPa, Liquid, Standard Abbe refractometry

CC(C)CCCC(C)CCCC(C)CCCCC(C)CCCC(C)CCCC(C)C (stereo not drawn) [2,6,10,15,19,23-hexamethyltetracosane]
Conditions | mass density [kg/m3] | refractive index | viscosity [mPa·s]
[1] | 805.4 | – | 31.12
[2] | – | 1.4474 | –

CC(C)CCCC(C)CCCC(C)CCCCC(C)CCCC(C)CCCC(C)C (stereo not drawn) [2,6,10,15,19,23-hexamethyltetracosane] + CCCCCC
Conditions | mass density, [3] [kg/m3] | refractive index, [4] | viscosity, [3] [mPa·s]
x1 = 0.0144 | 663.9 | 1.3798 | 0.405
x1 = 0.0481 | 682.1 | 1.3904 | 0.593
x1 = 0.0748 | 694.2 | 1.3976 | 0.727
x1 = 0.1218 | 711.9 | 1.4068 | 0.971
x1 = 0.1779 | 728.5 | 1.4153 | 1.413
x1 = 0.2858 | 751.4 | 1.4244 | 2.923
x1 = 0.3695 | 764 | 1.431 | 4.685
x1 = 0.4258 | 770.7 | 1.4349 | 6.068
x1 = 0.5661 | 783.6 | 1.4435 | 10.15
x1 = 0.718 | 793.5 | 1.4468 | 15.59
x1 = 0.807 | 798 | 1.4468 | 19.6
x1 = 0.8939 | 801.7 | 1.447 | 24.32
x1 = 0.9593 | 804.1 | 1.447 | 28.41
x1 = 0.9943 | 805.2 | 1.4472 | 30.74
x1 = 1 | 805.4 | 1.4474 | 31.12

C1CCCCC1 [cyclohexane]
Conditions | mass density [kg/m3] | refractive index | viscosity [mPa·s]
[1] | 773.7 | – | 0.898
[2] | – | 1.4235 | –

C1CCCCC1 [cyclohexane] + CCCCCC
[3]
Conditions | mass density [kg/m3] | viscosity [mPa·s]
x1 = 0.0357 | 658.2 | 0.295
x1 = 0.1127 | 665.9 | 0.301
x1 = 0.2 | 674.9 | 0.312
x1 = 0.3288 | 688.6 | 0.342
x1 = 0.462 | 703.5 | 0.405
x1 = 0.5424 | 712.9 | 0.451
x1 = 0.577 | 717 | 0.472
x1 = 0.6703 | 728.4 | 0.539
x1 = 0.7543 | 739.2 | 0.603
x1 = 0.8703 | 754.9 | 0.71
x1 = 0.9451 | 765.5 | 0.794
x1 = 0.974 | 769.7 | 0.842
x1 = 0.9935 | 772.7 | 0.894
x1 = 1 | 773.7 | 0.898

CCCCCCCCCC [decane]
Conditions | mass density [kg/m3] | refractive index | viscosity [mPa·s]
[1] | 726.2 | – | 0.859
[2] | – | 1.41 | –

CCCCCCCCCC [decane] + CCCCCC
Conditions | mass density, [3] [kg/m3] | refractive index, [4] | viscosity, [3] [mPa·s]
x1 = 0.021 | 657.1 | 1.3755 | 0.296
x1 = 0.0659 | 662 | 1.378 | 0.307
x1 = 0.1584 | 671.3 | 1.382 | 0.337
x1 = 0.233 | 678.1 | 1.3854 | 0.355
x1 = 0.2761 | 681.8 | 1.3871 | 0.377
x1 = 0.3493 | 687.8 | 1.39 | 0.417
x1 = 0.4506 | 695.3 | 1.394 | 0.471
x1 = 0.541 | 701.4 | 1.3973 | 0.518
x1 = 0.6382 | 707.4 | 1.4004 | 0.567
x1 = 0.7836 | 715.6 | 1.4045 | 0.657
x1 = 0.9095 | 722 | 1.408 | 0.772
x1 = 0.9654 | 724.7 | 1.4095 | 0.823
x1 = 0.9936 | 726 | 1.4099 | 0.855
x1 = 1 | 726.2 | 1.41 | 0.859

CCCCCCCCCCCCCCCC [hexadecane]
Conditions | mass density [kg/m3] | refractive index | viscosity [mPa·s]
[1] | 770.6 | – | 3.039
[2] | – | 1.434 | –

CCCCCCCCCCCCCCCC [hexadecane] + CCCCCC
Conditions | mass density, [3] [kg/m3] | refractive index, [4] | viscosity, [3] [mPa·s]
x1 = 0.0284 | 662.1 | 1.3784 | 0.322
x1 = 0.0757 | 673.3 | 1.386 | 0.382
x1 = 0.1349 | 685.7 | 1.395 | 0.473
x1 = 0.1842 | 694.9 | 1.4006 | 0.559
x1 = 0.266 | 708.4 | 1.4087 | 0.703
x1 = 0.3427 | 719.1 | 1.4147 | 0.864
x1 = 0.4864 | 735.5 | 1.4262 | 1.205
x1 = 0.503 | 737.1 | 1.4266 | 1.24
x1 = 0.6779 | 751.8 | 1.4318 | 1.735
x1 = 0.7546 | 757 | 1.432 | 2.022
x1 = 0.8927 | 765.1 | 1.4322 | 2.562
x1 = 0.9468 | 768 | 1.4332 | 2.805
x1 = 0.9902 | 770.1 | 1.434 | 3.012
x1 = 1 | 770.6 | 1.434 | 3.039

CCCCCC [hexane]
Conditions | mass density [kg/m3] | refractive index | viscosity [mPa·s]
[1] | 654.8 | – | 0.294
[2] | – | 1.3745 | –

CCCCCC [hexane] + C1CCCCC1
[3], x2 = 0
Conditions | mass density [kg/m3] | viscosity [mPa·s]
– | 654.8 | 0.294

CCCCCC [hexane] + CC(C)CCCC(C)CCCC(C)CCCCC(C)CCCC(C)CCCC(C)C
x2 = 0
Conditions | mass density [kg/m3] | refractive index | viscosity [mPa·s]
[3] | 654.8 | – | 0.294
[4] | – | 1.3745 | –

CCCCCC [hexane] + CCCCCCCCCC
x2 = 0
Conditions | mass density [kg/m3] | refractive index | viscosity [mPa·s]
[3] | 654.8 | – | 0.294
[4] | – | 1.3745 | –

CCCCCC [hexane] + CCCCCCCCCCCCCCCC
x2 = 0
Conditions | mass density [kg/m3] | refractive index | viscosity [mPa·s]
[3] | 654.8 | – | 0.294
[4] | – | 1.3745 | –
